Read-outs that look alike come from different tables or passages of the source.
Legend:
[1] = tested on: human peripheral blood mononuclear cells; settings: cultures of human peripheral blood mononuclear cells; cited from earlier work
herpes simplex virus = settings: subcutaneously, dermally or intravaginally 24 hours before infection; cited from earlier work
[2] = Solubility of the drug in gel formulations of the invention; assay type: physicochemical
[3] = tested on: interferon and tumor necrosis factor; settings: mice, oral administration; cited from earlier work
[4] = tested on: interferon and tumor necrosis factor; settings: rats, oral administration; cited from earlier work

SMILES: CCOCc1nc2c(N)nc3ccccc3c2n1CC(C)(C)O [4-amino-2-ethoxymethyl-α,α-dimethyl-1H-imidazo[4,5-c]quinoline-1-ethanol]
- cytokine induction [1]: induce interferon-α, tumor necrosis factor, interleukin-1α, interleukin-1β, interleukin-6 and interleukin-8
- antiviral activity (herpes simplex virus): antiviral activity
- solubility in formulations of the invention [2]: sufficiently soluble
- solubility in formulations of the invention ([2]; listed as 4-Amino-2-ethoxymethyl-α,α-dimethyl-1H-imidazo[4,5-c]quinoline-1-ethanol): substantial solubility
- induction of interferon and tumor necrosis factor [3]: induce interferon and tumor necrosis factor
- induction of interferon and tumor necrosis factor [4]: induce interferon and tumor necrosis factor

— patent US6365166B2, “Gel formulations for topical drug delivery” (priority 1996, dated 2002)
